Consider eleven compounds from patent US20080241919A1, “Defined media for pluripotent stem cell culture” (The Burnham Institute of Medical Research, priority 2003, published 2008).

The test system of experiment [1] is human embryonic stem cells (hESCs). In words: Medium component requirement assay, hESCs on laminin/collagen-coated plates for seven days. The class given is cell-based. On the procedure:
(a) Media containing bFGF, insulin, and ascorbic acid sustain the healthy undifferentiated growth of hESCs on laminin/collagen-coated plates. Insulin (20 μg/ml), transferrin (8 μg/ml), albumin (for example, the commercial product known as AlbuMAXI) (10 mg/ml), and ascorbic acid (50 μg/ml) were added to a base medium that consisted of 100% DMEM/F-12 with 20 ng/ml bFGF, 2 mM L-alanyl-L-glutamine, 1×MEM essential amino acids solution, 1×MEM non-essential amino acids solution, and 100 μM β-mercaptoethanol. The degree of differentiation was judged by morphology of the colonies and Oct-4 expression. […] (red). […] However, if ascorbic acid was omitted from the media [D, H, L] […] White arrows in all panels delineate the edge of an hESC colony. The area delineated by the white square in [A], [E], and [I] indicates the approximate area that is visualized at higher magnification in [B, C], [F, G], and [J, K], respectively. [C], [G], and [K] is the image in [B], [F], and [J], respectively, merged with DAPI staining of their nuclei (blue).
(b) When either bFGF or insulin was omitted from the media, hESC colonies appeared to differentiate completely under the feeder- and serum-free conditions. […] The distinct growth effects of insulin and bFGF were further accentuated in media lacking ascorbic acid [C, F] (“NO Ascorbic Acid”). In the absence of ascorbic acid and in media that contained only insulin as the growth factor [C] (phase) (“NO Ascorbic Acid”), slower growth of the differentiated hESCs was observed (compare [A, B] to [C]). In ascorbic-acid-lacking media that contained bFGF as the only growth factor [F] […] White arrows in all panels delineate the edge of hESC colonies.
Having determined that substantial numbers of undifferentiated hESCs could be maintained over long periods in feeder-free environments using the bFGF-supplemented media described above, the necessity of other components in the medium to maintain hESCs in an undifferentiated state was next examined. “Knockout Serum Replacement” contains insulin, transferrin, ascorbic acid, amino acids, and AlbuMAX (a chromatographically-purified lipid-rich bovine serum albumin [BSA] with low IgG content, but nevertheless a xeno-derived product). Accordingly, whether insulin, transferrin, BSA, and ascorbic acid were essential components was assessed, in combination with bFGF, for maintaining hESCs in an undifferentiated state. The serum replacement components insulin (20 μg/ml), transferrin (8 μg/ml), albumin (AlbuMAX) (10 mg/ml), and ascorbic acid (50 μg/ml) were added to a base medium that consisted of DMEM/F-12 or KO-DMEM with bFGF (20 ng/ml), L-alanyl-L-glutamine or L-glutamine (2 mM), MEM essential amino acids solution (1×), MEM nonessential amino acids solution (1×), and β-mercaptoethanol (100 μM). To assay for the differentiation-forestalling activity of each of these components, undifferentiated hESCs were seeded on laminin/collagen-coated plates and cultivated for seven days in media containing one or more of the individual components. The degree of differentiation of the colonies was judged by defining morphology and Oct-4 expression.
When either bFGF or insulin was omitted from the media, more than 90% of the colonies appeared to differentiate completely within the first passage, as indicated by their differentiated morphology (FIG. 2b, A,B,D,E), their complete loss of Oct-4 expression, and their expression of the cell surface marker SSEA-1 (FIG. 2c, B,C). […] The different effects of insulin and bFGF were accentuated further in media lacking ascorbic acid. In the absence of ascorbic acid and in media containing only insulin, the growth of differentiated hESCs was simply slower (FIG. 2b, C). […] Although albumin and transferrin are not crucial components for sustaining the undifferentiated growth of hESCs, they might abet survival or maintenance of a normal colony shape.

Experiment [2] shares this test system. As to the kind of experiment: Other growth factors in place of bFGF for undifferentiated growth of hESCs. The format is cell-based. The settings on record: feeder- and serum-free conditions. How it is done: All the growth factors were dissolved in a PBS buffer that contained 0.5% BSA, 1 mM DTT (Dithiothreitol) and 10% glyceral as a 10 μg/ml (500×) stock solution and stored in aliquots at −80° C. These factors were added individually to the hESC cultures at a concentration of 20 ng/ml, in the absence of bFGF or in the presence of a low concentration of bFGF (4 ng/ml). Seven days after seeding undifferentiated hESCs on laminin/collagen-coated plates, the cultures were examined.

Experiment [3] has as its system acetylated histone H3 and H4, Myc, Tip60 HAT, p300 HAT. In words: Chromatin state immunofluorescence (acetylated H3/H4, Myc, Tip60, p300) in hESCs. The class given is cell-based, human. The conditions noted are these: named factor omitted from the media. The text has this:
(c) Presence of both bFGF and insulin is essential for maintenance of an acetylated transcriptionally active chromatin state in undifferentiated hESCs. When either bFGF or insulin is omitted from the media, the differentiated hESC colonies express the differentiation-associated cell surface marker SSEA-1 [B, C] […] (green), Myc [E, F] (red), and histone acetyltransferase (HAT) Tip60 [I, K] (green) and p300 [J, K] […] All cells are indicated by DAPI staining of their nuclei (blue).
To discover the minimal essential conditions needed to support the long-term growth of undifferentiated hESCs, morphological analysis was used to assess the developmental stage of hESCs at different times. For these analyses hESCs were grown in a 6- or 12-well plate to maturation (day 6 or 7 after seeding) before being fixed and visualized under a phase contrast microscope. Cellular immunofluorescence was also employed to assess the state of differentiation of hESCs. […] The state of differentiation of hESC was further assessed by generating (via lentiviral-mediated transduction) hESCs carrying a reporter gene (enhanced green fluorescence protein (EGFP)) under control of the Oct-4 promoter. Using these transfected hESCs (carrying Oct-4 driven EGFP), the undifferentiated state of hESCs can be visualized by green fluorescence (indicating Oct-4 expression). […]

Experiment [4] relates to human embryonic stem cells (hESCs). In words: Growth of hESCs on purified matrix protein-coated plates. The settings on record: hESC media containing 20 ng/ml bFGF. The format is cell-based. The text has this:
(e) Characterization of hESCs maintained on matrix protein-coated plates in the defined hESC media - Determining the Minimal Essential Matrix. hESCs maintained on a laminin-coated plate have a classic undifferentiated morphology [A] (phase image) and express Oct-4 [B, C] (red). [C] is the image in [B] merged with DAPI staining of their nuclei (blue). White arrows delineate the edge of an hESC colony. The area delineated by the white square in [A] indicates the approximate area that is visualized at higher magnification in [B, C]. […] Red arrows in [D-F] indicate that the differentiated colony consisted of dense centers containing cyst-like structures and necrotic cells. Laminin, therefore, appeared to be the minimal sufficient matrix protein.
Having established that bFGF, insulin, and ascorbic acid were important minimal components of a feeder-free culture system, the growth of hESCs on purified matrix proteins, including human laminin-, fibronectin-, or collagen IV-coated plates in hESC media containing 20 ng/ml bFGF, was further examined.

For the compound `O=C1O[C@H]([C@@H](O)CO)C(O)=C1O` [ascorbic acid, reference compound], the “cyst-like structures and necrotic cells within dense cores of differentiated hESC colonies” value in experiment [1] (absence of ascorbic acid, media containing only bFGF) is given as “became more severe”. For the same compound, the “growth of differentiated hESCs” value in experiment [1] (absence of ascorbic acid, media containing only insulin) is recorded as “simply slower”. Besides, in experiment [1] (ascorbic acid omitted from the media), the “appearance of hESC colonies” value is “very dense at their core and necrotic”. For “EGF: epidermal growth factor (NSDSECPLSHDGYCLHDGVCMYIEALDKYACNCVVGYIGERCQYRDLKWWELR; Epidermal growth factor; UniProt P01133 971-1023, looked up)”, in experiment [2], the “ability to replace bFGF in supporting undifferentiated growth of hESCs” value is “can not replace bFGF”.

Regarding IGF-I: insulin-like growth factor-I, the “ability to replace bFGF in supporting undifferentiated growth of hESCs” value in experiment [2] is listed as “can not replace bFGF”. As to IGF-II: insulin-like growth factor-II, the “ability to replace bFGF in supporting undifferentiated growth of hESCs” value in experiment [2] is given as “can not replace bFGF”. On to PDGF: platelet-derived growth factor-AB, for which the “ability to replace bFGF in supporting undifferentiated growth of hESCs” value in experiment [2] is “can not replace bFGF”. Still for that read-out and setting: in the case of VEGF it was “can not replace bFGF”.

With aFGF: acidic fibroblast growth factor, the “ability to replace bFGF in supporting undifferentiated growth of hESCs” value in experiment [2] is “can not replace bFGF”. With “albumin: chromatographically-purified lipid-rich bovine serum albumin with low IgG content”, in experiment [1] (absence of albumin), the “shape of hESC colonies” value was “more flat and spread out”.

For the compound “insulin: human recombinant insulin from Sigma, medium component”, in experiment [1] (media that contained only the named growth factor), the “cell morphology in differentiated colonies” value is given as “Large round cells”. In addition, in experiment [3], the “immunoreactivity to acetylated H3 and H4, Myc, Tip60 HAT, nuclear focal localization of p300 HAT” value was “undetectable or weak immunoreactivity”. As to laminin, the “hESC colonies remaining undifferentiated (morphology, Oct-4)” value in experiment [4] is recorded as “more than 80%”. On to “transferrin: serum replacement component added at 8 μg/ml”, for which, in experiment [1] (absence of transferrin), the “number of hESC colonies” value is on record as “fewer total hESC colonies”.
